Laboratory results: patent publication US8785445B2 (Array BioPharma Inc., priority 2008, dated 2014)
Like-named read-outs stand apart in the source and are kept apart here.

Target: T1, human DP2 (Homo sapiens, UniProt Q9Y5Y4)
T1 construct: expressed in transfected cells; membranes prepared
T1 sequence (Q9Y5Y4 1-395): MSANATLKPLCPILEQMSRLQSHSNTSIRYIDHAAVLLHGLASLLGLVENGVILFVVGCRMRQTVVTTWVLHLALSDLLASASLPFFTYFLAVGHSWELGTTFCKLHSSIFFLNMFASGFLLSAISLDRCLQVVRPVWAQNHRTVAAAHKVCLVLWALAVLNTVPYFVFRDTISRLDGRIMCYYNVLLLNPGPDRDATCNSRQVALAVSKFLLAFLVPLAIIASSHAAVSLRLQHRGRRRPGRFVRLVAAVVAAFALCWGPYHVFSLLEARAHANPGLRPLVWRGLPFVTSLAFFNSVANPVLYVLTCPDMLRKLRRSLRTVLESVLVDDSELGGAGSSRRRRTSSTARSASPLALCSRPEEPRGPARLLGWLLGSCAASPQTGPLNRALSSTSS
Test: DP-2 binding inhibition assay (3H-PGD2, membranes of DP2-expressing K562 cells)
How it was run: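 Membranes from K562 clones stably expressing human DP2 were incubated 60 min at room temperature with 3H-PGD2 and compound, with 0.1% BSA, 1% HSA or 4% HSA, then filtered and counted.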

[1] = 0.1% BSA, read-out: EC50 (nM) 0.1% BSA
[2] = 1% HSA, read-out: EC50 (nM) 1% HSA
[3] = 4% HSA, read-out: EC50 (nM) 4% HSA

Row | SMILES | EC50 [1] | EC50 [2] | EC50 [3]
1 | N#Cc1cc2c(cc1Oc1ccc(C(=O)Nc3ccc4[nH]ncc4c3)cc1)OCCC2C(=O)O (stereo not drawn) [Example 192, 7-(4-(1H-indazol-5-ylcarbamoyl)phenoxy)-6-cyanochroman-4-carboxylic acid] | 492 nM | – | –
2 | O=C(Nc1cnc2cc(Cl)ccc2n1)c1ccc(Oc2cc3c(cc2Cl)C(C(=O)O)CCO3)cc1 (stereo not drawn) [Example 15, 6-Chloro-7-(4-(6-chloroquinoxalin-2-ylcarbamoyl)phenoxy)chroman-4-carboxylic acid] | 17.9 nM | 207 nM | 409 nM
3 | N#Cc1cc2c(cc1Oc1ccc(C(=O)Nc3ccc(Cl)cn3)cc1)OCCC2C(=O)O (stereo not drawn) [Example 2, 7-(4-(5-Chloropyridin-2-ylcarbamoyl)phenoxy)-6-cyanochroman-4-carboxylic acid] | 26.7 nM | – | –
4 | N#Cc1cc2c(cc1Oc1ccc(C(=O)Nc3ccc4nc(C(F)(F)F)[nH]c4c3)cc1)OCCC2C(=O)O (stereo not drawn) [Example 191, 6-cyano-7-(4-(2-(trifluoromethyl)-1H-benzo[d]imidazol-6-ylcarbamoyl)phenoxy) chroman-4-carboxylic acid] | 41.5 nM | 137 nM | –
5 | N#Cc1cc2c(cc1Oc1ccc(C(=O)Nc3cnc4ccccc4c3)cc1)OCCC2C(=O)O (stereo not drawn) [Example 10, 6-Cyano-7-(4-(quinolin-3-ylcarbamoyl)phenoxy)chroman-4-carboxylic acid] | 37.8 nM | – | –
6 | CCc1oc(NC(=O)c2ccc(Oc3cc4c(cc3Cl)C(C(=O)O)CCO4)cc2)nc1-c1ccccc1 (stereo not drawn) [Example 159, 6-chloro-7-(4-(5-ethyl-4-phenyloxazol-2-ylcarbamoyl)phenoxy)chroman-4-carboxylic acid] | – | – | 437 nM
7 | O=C(Nc1cncc(-c2cccc(Cl)c2)n1)c1ccc(Oc2cc3c(cc2Cl)C(C(=O)O)CCO3)cc1 (stereo not drawn) [Example 92, 6-Chloro-7-(4-(6-(3-chlorophenyl)pyrazin-2-ylcarbamoyl)phenoxy)chroman-4-carboxylic acid] | – | – | 415 nM
8 | Cc1ccc(-c2cccc(NC(=O)c3ccc(Oc4cc5c(cc4Cl)C(C(=O)O)CCO5)cc3)n2)cc1 (stereo not drawn) [Example 57, 6-Chloro-7-(4-(6-p-tolylpyridin-2-ylcarbamoyl)phenoxy)chroman-4-carboxylic acid] | – | – | 39.4 nM
9 | N#Cc1cc2c(cc1Oc1ccc(C(=O)Nc3cccc(-c4cccc(Cl)c4)n3)cc1)OCCC2C(=O)O (stereo not drawn) [Example 50, 7-(4-(6-(3-Chlorophenyl)pyridin-2-ylcarbamoyl)phenoxy)-6-cyanochroman-4-carboxylic acid] | – | – | 135 nM
10 | O=C(Nc1cccc(-c2ccc(Cl)c(Cl)c2)n1)c1ccc(Oc2cc3c(cc2Cl)C(C(=O)O)CCO3)cc1 (stereo not drawn) [Example 52, 6-Chloro-7-(4-(6-(3,4-dichlorophenyl)pyridin-2-ylcarbamoyl)phenoxy)chroman-4-carboxylic acid] | – | – | 50.8 nM
11 | O=C(Nc1ccc(-c2ccc(Cl)cc2F)nn1)c1ccc(Oc2cc3c(cc2Cl)C(C(=O)O)CCO3)cc1 (stereo not drawn) [Example 72, Sodium 6-chloro-7-(4-(6-(4-chloro-2-fluorophenyl)pyridazin-3-ylcarbamoyl)phenoxy)chroman-4-carboxylate] | – | – | 1110 nM
12 | O=C(NCCn1ccc(-c2ccc(Cl)cc2)n1)c1ccc(Oc2cc3c(cc2Cl)C(C(=O)O)CCO3)cc1 (stereo not drawn) [Example 219, 6-chloro-7-(4-(2-(3-(4-chlorophenyl)-1H-pyrazol-1-yl)ethylcarbamoyl)phenoxy) chroman-4-carboxylic acid] | – | – | 1370 nM
13 | COc1nc(C(F)(F)F)ccc1CCNC(=O)c1ccc(Oc2cc3c(cc2Cl)C(C(=O)O)CCO3)cc1 (stereo not drawn) [Example 80, Sodium 6-chloro-7-(4-(2-(2-methoxy-6-(trifluoromethyl)pyridin-3-yl)ethylcarbamoyl)phenoxy)chroman-4-carboxylate] | – | – | 25.1 nM
14 | COc1ccc2nc(NC(=O)c3ccc(Oc4cc5c(cc4Cl)C(C(=O)O)CCO5)cc3)ccc2c1 (stereo not drawn) [Example 22, 6-Chloro-7-(4-(6-methoxyquinolin-2-ylcarbamoyl)phenoxy)chroman-4-carboxylic acid] | – | – | 466 nM
15 | COc1ccc(-c2ccc(NC(=O)c3ccc(Oc4cc5c(cc4Cl)C(C(=O)O)CCO5)cc3)nc2)c(OC)n1 (stereo not drawn) [Example 74, Sodium 6-chloro-7-(4-(2′,6′-dimethoxy-3,3′-bipyridin-6-ylcarbamoyl)phenoxy)chroman-4-carboxylate] | – | – | 794 nM
16 | N#Cc1cc2c(cc1Oc1ccc(C(=O)Nc3ccc4cc(Cl)ccc4n3)cc1)OCCC2C(=O)O (stereo not drawn) [Example 5, 7-(4-(6-Chloroquinolin-2-ylcarbamoyl)phenoxy)-6-cyanochroman-4-carboxylic acid] | 5.9 nM | 137 nM | 357 nM
17 | CSc1ccc(-c2ccc(NC(=O)c3ccc(Oc4cc5c(cc4Cl)C(C(=O)O)CCO5)cc3)nn2)cc1 (stereo not drawn) [Example 64, Sodium 6-chloro-7-(4-(6-(4-(methylthio)phenyl)pyridazin-3-ylcarbamoyl)phenoxy)chroman-4-carboxylate] | – | – | 344 nM

Row | SMILES | EC50 [1] | EC50 [2] | EC50 [3]
18 | N#Cc1cc2c(cc1Oc1ccc(C(=O)Nc3nc4c(F)cc(F)cc4s3)cc1)OCCC2C(=O)O (stereo not drawn) [Example 202, 6-cyano-7-(4-(4,6-difluorobenzo[d]thiazol-2-ylcarbamoyl)phenoxy) chroman-4-carboxylic acid] | 24.5 nM | – | –
19 | O=C(Nc1ccc(-c2ccc(C(F)(F)F)cc2F)nn1)c1ccc(Oc2cc3c(cc2Cl)C(C(=O)O)CCO3)cc1 (stereo not drawn) [Example 70, Sodium 6-chloro-7-(4-(6-(2-fluoro-4-(trifluoromethyl)phenyl)pyridazin-3-ylcarbamoyl)phenoxy)chroman-4-carboxylate] | – | – | 437 nM
20 | O=C(Nc1ccc(-c2ccc(C(F)(F)F)cc2)nc1)c1ccc(Oc2cc3c(cc2Cl)C(C(=O)O)CCO3)cc1 (stereo not drawn) [Example 76, Sodium 6-chloro-7-(4-(6-(4-(trifluoromethyl)phenyl)pyridin-3-ylcarbamoyl)phenoxy)chroman-4-carboxylate] | – | – | 101 nM
21 | O=C(Nc1ccc(-c2ccc(F)cc2F)nn1)c1ccc(Oc2cc3c(cc2Cl)C(C(=O)O)CCO3)cc1 (stereo not drawn) [Example 71, Sodium 6-chloro-7-(4-(6-(2,4-difluorophenyl)pyridazin-3-ylcarbamoyl)phenoxy)chroman-4-carboxylate] | – | – | 1510 nM
22 | N#Cc1cc2c(cc1Oc1ccc(C(=O)Nc3ncc4cc(Cl)ccc4n3)cc1)OCCC2C(=O)O (stereo not drawn) [Example 8, 7-(4-(6-Chloroquinazolin-2-ylcarbamoyl)phenoxy)-6-cyanochroman-4-carboxylic acid] | – | – | 695 nM
23 | O=C(Nc1ccnc(-c2ccc(Cl)cc2)n1)c1ccc(Oc2c(Cl)cc3c(c2Cl)OCCC3C(=O)O)cc1 (stereo not drawn) [Example 137, 6,8-Dichloro-7-(4-(2-(4-chlorophenyl)pyrimidin-4-ylcarbamoyl)phenoxy)chroman-4-carboxylic acid] | – | – | 80.9 nM
24 | O=C(Nc1cc(-c2ccc(Cl)cc2)n[nH]1)c1ccc(Oc2cc3c(cc2Cl)C(C(=O)O)CCO3)cc1 (stereo not drawn) [Example 180, 6-Chloro-7-(4-(3-(4-chlorophenyl)-1H-pyrazol-5-ylcarbamoyl)phenoxy)chroman-4-carboxylic acid] | – | – | 406 nM
25 | N#Cc1cc2c(cc1Oc1ccc(C(=O)Nc3ccc4ncoc4c3)cc1)OCCC2C(=O)O (stereo not drawn) [Example 188, 7-(4-(benzo[d]oxazol-6-ylcarbamoyl)phenoxy)-6-cyanochroman-4-carboxylic acid] | 301 nM | – | –
26 | Cc1ccc(-c2ccc(NC(=O)c3ccc(Oc4cc5c(cc4Cl)C(C(=O)O)CCO5)cc3)nn2)cc1 (stereo not drawn) [Example 62, Sodium 6-chloro-7-(4-(6-p-tolylpyridazin-3-ylcarbamoyl)phenoxy)chroman-4-carboxylate] | – | – | 327 nM
27 | COc1cccc(CCNC(=O)c2ccc(Oc3cc4c(cc3Cl)C(C(=O)O)CCO4)cc2)n1 (stereo not drawn) [Example 218, 6-chloro-7-(4-(2-(6-methoxypyridin-2-yl)ethylcarbamoyl)phenoxy) chroman-4-carboxylic acid] | – | – | 404 nM
28 | N#Cc1cc2c(cc1Oc1ccc(C(=O)Nc3nc4ccccc4s3)cc1)OCCC2C(=O)O (stereo not drawn) [Example 194, 7-(4-(benzo[d]thiazol-2-ylcarbamoyl)phenoxy)-6-cyanochroman-4-carboxylic acid] | 10.7 nM | 1240 nM | –
29 | CC(C)Oc1ncccc1CCNC(=O)c1ccc(Oc2cc3c(cc2Cl)C(C(=O)O)CCO3)cc1 (stereo not drawn) [Example 228, 6-chloro-7-(4-(2-(2-isopropoxypyridin-3-yl)ethylcarbamoyl)phenoxy) chroman-4-carboxylic acid] | – | – | 195 nM
30 | Cc1noc(C)c1CCNC(=O)c1ccc(Oc2cc3c(cc2C#N)C(C(=O)O)CCO3)cc1 (stereo not drawn) [Example 198, 6-cyano-7-(4-(2-(3,5-dimethylisoxazol-4-yl)ethylcarbamoyl)phenoxy)chroman-4-carboxylic acid] | 1240 nM | – | –
31 | COc1ccc(-c2ccc(NC(=O)c3ccc(Oc4cc5c(cc4Cl)C(C(=O)O)CCO5)cc3)nn2)cn1 (stereo not drawn) [Example 68, Sodium 6-chloro-7-(4-(6-(6-methoxypyridin-3-yl)pyridazin-3-ylcarbamoyl)phenoxy)chroman-4-carboxylate] | – | – | 869 nM
32 | Cc1cc(NC(=O)c2ccc(Oc3cc4c(cc3Cl)C(C(=O)O)CCO4)cc2)nc2ccccc12 (stereo not drawn) [Example 21, 6-Chloro-7-(4-(4-methylquinolin-2-ylcarbamoyl)phenoxy)chroman-4-carboxylic acid] | – | – | 265 nM
33 | O=C(Nc1ccn(-c2cccc(Cl)c2)n1)c1ccc(Oc2cc3c(cc2Cl)C(C(=O)O)CCO3)cc1 (stereo not drawn) [Example 172, 6-chloro-7-(4-(1-(3-chlorophenyl)-1H-pyrazol-3-ylcarbamoyl)phenoxy)chroman-4-carboxylic acid] | – | – | 55 nM
